Data on one sequence can be found in US20220354929A1, “PEPTIDES AND USES THEREOF” (LATERAL IP PTY LTD, priority 2019, published 2022).

In one data set the test system is dorsal horn neurones. As to the kind of experiment: whole-cell patch clamp recording in spinal cord slices from Chung models of neuropathic pain: membrane properties of dorsal horn neurones. The format is cell-based, rat. The settings on record: peptide 5 μM. The text has this:
(§1) An in vitro spinal cord slice with intact dorsal root afferents combined with single-cell whole-cell patch clamp electrophysiological recording techniques was used to assess the electrophysiological properties of the peptides having the amino acid sequence of SEQ ID NO:2, 3, 4 and 5.
The spinal nerve ligation model (Chung model) was first reported by Kim and Chung (1992; Pain, 50(3):355-63) and involves a single tight ligation of the L5 spinal nerve. […] This model has been used as a “gold standard” model for assessing the efficacy of novel compounds targeting neuropathic pain.
Adult male Sprague-Dawley rats, 8-9 weeks old, weighing 220-250 g at the time of surgery, were purchased from Charles River UK Ltd. The animals were housed in groups of 4 in an air-conditioned room on a 12-hour light/dark cycle. Food and water were available ad libitum. They were allowed to acclimatise to the experimental environment for three days by leaving them on a raised metal mesh for at least 40 min. The baseline paw withdrawal threshold (PWT) was examined using a series of graduated von Frey hairs for 3 consecutive days before surgery and re-assessed on the 6th to 8th day after surgery and on the 12th to 14th day after surgery before drug dosing. Each rat was anaesthetized with 5% isoflurane mixed with oxygen (2L per min) followed by an intramuscular (i.m.) injection of ketamine 90 mg/kg plus xylazine 10 mg/kg. The back was shaved and sterilized with povidone-iodine. The animal was placed in a prone position and a para-medial incision was made on the skin covering the L4-6 level. The L5 spinal nerve was carefully isolated and tightly ligated with 6/0 silk suture. The wound was then closed in layers after a complete hemostasis. A single dose of antibiotics (Amoxipen, 15 mg/rat, i.p.) was routinely given for prevention of infection after surgery. The animals were placed in a temperature-controlled recovery chamber until fully awake before being returned to their home cages.
(§2) Chung model rats, aged 8 to 12 weeks, were housed in an air-conditioned room on a 12 hour light/dark cycle with food and water available ad libitum. The rats were terminally anaesthetized using isofluorane and decapitated. The vertebral column, rib cage and surrounding tissues were rapidly removed and pinned under ice-cold (<4° C.), high sucrose-containing artificial cerebrospinal fluid (aCSF) comprising: 127 mM sucrose, 1.9 mM KCl, 1.2 mM KH2PO4, 0.24 mM CaCl2, 3.9 mM MgCl2, 26 mM NaHCO3, 10 mM D-glucose and 0.5 mM ascorbic acid. A laminectomy was performed and the spinal cord and associated roots gently dissected and teased out of the spinal column and surrounding tissues. Dura and pia mater and ventral roots were subsequently removed with fine forceps and the spinal cord hemisected. Care was taken to ensure dorsal root inputs to the spinal cord were maintained. The hemisected spinal cord-dorsal root preparations were secured to a tissue slicer and spinal cord slices (400 to 450 μm thick) with dorsal roots attached were cut in chilled (<4° C.) high sucrose aCSF using a Leica VT1000s microtome.
(§3) Slices were transferred to a small beaker containing ice cold aCSF with 127 mM NaCl, 1.9 mM KCl, 1.2 mM KH2PO4, 1.3 mM MgCl2, 2.4 mM CaCl2, 26 mM NaHCO3 and 10 mM D-glucose, and rapidly warmed to 35° C. ±1° C. in a temperature-controlled water bath over a 20 minute period, then subsequently removed and maintained at room temperature (22° C. ±2° C.) prior to electrophysiological recording. Electrophysiological recording was performed in aCSF comprising 127 mM NaCl, 1.9 mM KCl, 1.2 mM KH2PO4, 1.3 mM MgCl2, 2.4 mM CaCl2, 26 mM NaHCO3 and 10 mM D-glucose.
Whole-cell recordings were performed at 34-35° C. from Lamina I or II neurones in the dorsal horn of the spinal cord slices using Axopatch 1D and/or Multiclamp 700B amplifies and using the “blind” version of the patch-clamp technique. […]
On the technique in general: The patch-clamp technique gives a direct electrical read-out from membranes.

Data set [1] in a line: solubility in distilled water.
In data set [2] the test system is dorsal root afferent-mediated synaptic inputs to dorsal horn neurones. As to the kind of experiment: whole-cell recording in spinal cord slices from Chung models: dorsal root afferent-mediated synaptic inputs (evoked EPSPs/IPSPs). Type of data set: cell-based, rat. The conditions noted are these: peptide 5 μM; dorsal root stimulation 0.1 Hz. The protocol:
as §1, §2, §3
Whole-cell recordings were performed at 34-35° C. from Lamina I or II neurones in the dorsal horn of the spinal cord slices using Axopatch 1D and/or Multiclamp 700B amplifies and using the “blind” version of the patch-clamp technique.
Patch pipettes were pulled from thin-walled borosilicate glass with resistances of between 3 and 8 MS2 when filled with intracellular solution (140 mM potassium gluconate, 10 mM KCl, 1 mM EGTA-Na, 10 mM HEPES, 4 mM Na2ATP, 0.3 mM Na-GTP). The peptides of SEQ ID NOs:2, 3, 4 or 5 (LAT7771, LAT7772, LAT7773 or LAT7774) were diluted in the tissue bath at a concentration of 5 μM.
A concentric bipolar stimulating electrode was placed appropriately either on the dorsal root or dorsal root entry zone to evoke postsynaptic potentials/currents in recorded cells (see FIG. 1). […] EPSPs/EPSCs were confirmed as monosynaptic on the basis of being characterised by a constant latency and rise-time with few failures.
Recordings were monitored on an oscilloscope and stored on digital audio tapes for later off-line analysis. In addition, data were low-pass filtered at 2-5 kHz, (1 kHz for voltage-clamp data), digitized at 2-10 kHz and stored on a PC running pCLAMP 10 data acquisition software (Axon Instruments). Analysis of electrophysiological data was carried out using Clampfit 10 software.

Values joined by “and” are separate entries in the source; they are usually repeats but may differ in a detail not shown here. Identical values can stand only once. “Also recorded” adds a separate entry of the source.

For the sequence CRIVYDSNCG [LAT7774], in the data set with dorsal horn neurones, the “effect on inward rectification (in words)” value is “changes in inward rectification” and the “effect on membrane potential / postsynaptic membrane properties (in words)” value was “little effect on a further 2 dorsal horn neurones; also recorded: hyperpolarisation; also recorded: depolarisation”. In the data set with dorsal horn neurones (all cells), the “Input Resistance, mean in presence of peptide” value is 294.0±62.2 MΩ and 294.0 MΩ. Moreover, the “Membrane Potential, mean in presence of peptide” value in the data set on dorsal horn neurones (all cells, ipsilateral to injury) was −59.8±3.6 mV and −59.8 mV. Moreover, in the data set with dorsal horn neurones (control = 100), the “Normalised Input Resistance, mean in presence of peptide” value came out at 121.2 and the “Normalised Input Resistance, ΔIR” value is −21.2. Also, the “reversal potential of peptide-induced response (intersection of VI relations)” value in the data set on dorsal horn neurones (individual neurones) was “around −100 mV and ~−65 mV and around −80 mV and ~−85 mV and around −95 mV and around −55 mV and around −85 mV”. In addition, in the data set on dorsal horn neurones (rest = 100), the “Normalised Membrane Potential, mean in presence of peptide” value was 100.9 and the “Normalised Membrane Potential, ΔVm” value is −0.9. Besides, the “solubility in distilled water” value in data set [1] is “soluble”. The “effect on dorsal root-evoked EPSPs / excitatory synaptic transmission (in words)” value in data set [2] was “no effect on dorsal root evoked (0.1 Hz) EPSPs in 4 neurones; also recorded: minor reduction in two; also recorded: increased EPSPs in one; also recorded: both facilitating and inhibiting these inputs; also recorded: small decrease in EPSPs; also recorded: lack of effect; also recorded: increase in EPSPs”.
